Experimental data: paper PMC5746060, “General and Modular Strategy for Designing Potent, Selective, and Pharmacologically Compliant Inhibitors of Rhomboid Proteases” (Cell Chemical Biology, 2017)
Starred links: 1 amine or outer side, 2 acyl side, 3 side chain; linkers in the order of their positions; H or OH if unused. Non-standard residues stand in square brackets, D forms with d. Residues, ends and D or L forms follow the SMILES beside them. *: point of attachment. NH(4-phenylbutyl) = c1ccc(CCCCN*)cc1; X1 = C[C@H](N[*:1])C(=O)C(=O)[*:2]; NHPhenethyl = c1ccc(CCN*)cc1

Tests used:
[1] = target: T1, Escherichia coli rhomboid GlpG (Escherichia coli, UniProt P09391); assay: in vitro GlpG inhibition assay with fluorogenic transmembrane peptide substrate (apparent IC50); assay type: biochemical
T1 construct: made in house; host or cells: E. coli C41(DE3)
T1 sequence (P09391 whole entry): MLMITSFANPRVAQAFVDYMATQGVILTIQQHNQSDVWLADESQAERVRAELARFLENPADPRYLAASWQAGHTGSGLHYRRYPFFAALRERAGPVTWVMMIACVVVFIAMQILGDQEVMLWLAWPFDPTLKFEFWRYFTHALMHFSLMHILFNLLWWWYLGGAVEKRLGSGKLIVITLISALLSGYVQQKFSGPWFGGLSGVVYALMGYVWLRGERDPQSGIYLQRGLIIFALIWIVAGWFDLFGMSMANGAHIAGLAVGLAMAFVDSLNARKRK
From the text: To gain insight into these preferences and their possible interactions, we have generated tetra- and pentapeptidyl chloromethylketones (CMK or cmk henceforth) harboring amino acids preferred in positions P5 to P1 by the Escherichia coli rhomboid GlpG (GlpG henceforth), using the sequence background of the Providencia TatA ([Stevenson et al., 2007]), represented by the parent compound Ac-IATA-cmk. We measured the inhibitory properties of this series of compounds using a newly developed in vitro assay employing a fluorogenic transmembrane peptide substrate ([Ticha et al., 2017]) that faithfully represents a native rhomboid substrate.
Figure 1 The Potency of Substrate-Derived Inhibitors Can be Improved by Modifying the Amino acid Sequence of the P5 to P1 Region (A) The parent inhibitor Ac-IATA-cmk was modified by introducing strongly preferred amino acids ([Zoll et al., 2014]) into the P4, P3, P2, and P5 positions to yield the listed compounds. Their apparent IC50 values were measured with 1 hr preincubation using 10 μM fluorogenic substrate KSp35 and 0.05% (w/v) DDM. The reported values are best-fit means with SD representative of 2–3 measurements. (B) The sequence-optimized peptidyl chloromethylketones were soaked into the native crystals of GlpG and structures of the complexes were solved by X-ray diffraction (for statistics, see Table S1). […] Note that in the Ac-RVRHA-cmk structure (right), the side chain of the Arg residue in the P5 position of the inhibitor has not been modeled due to poor or missing electron density peaks. (C) Interactions of RVRHA-cmk with GlpG were analyzed by Ligplot+ ([Laskowski and Swindells, 2011]). Ligands are shown as thick sticks with carbons in green, proteins as thin sticks with carbons in gray, hydrogen bonds as yellow dashed lines, and amino acids involved in van der Waals contacts are highlighted as transparent surfaces. The inhibitor forms covalent bonds with S201 and H254 via the chloromethylketone warhead, and it hydrogen bonds with the backbone of residues 196–198 from the L3 loop and residues 248–250 from the L5 loop. van der Waals contacts with the inhibitor are formed by the residues from the L3 loop of GlpG, by S193 and Q189 from TMD3, and by F146 and M120 from the L1 loop that pack against the Val side chain of the P4 position of the inhibitor, as observed previously ([Zoll et al., 2014]). (D) The conformations of peptide inhibitors bound to the active site of GlpG were compared by performing structural alignment of the complexes of VRHAcmk (PDB: 5MT7), RVRHAcmk (PDB: 5MT8), IATAcmk (PDB: 4QO2), and VRMAcho (PDB: 5F5B) in PyMOL ([Schrodinger, 2012]). […] The backbone of the ligands in all complexes has virtually identical conformation with the exception of the distortion of the oxyanion by the chloromethylketone, and the biggest differences are found in the conformation of the P2 side chain, which is not surprising, because almost any side chain can be accommodated in this position ([Zoll et al., 2014]). TEXT PRINTED IN THE PICTURE: (A) AcIATAcmk: IC50 (μM): 213 | (A) AcVATAcmk: IC50 (μM): 450 | (A) AcIAHAcmk: IC50 (μM): 200 | (A) AcIRTAcmk: IC50 (μM): 84 | (A) AcVRHAcmk: IC50 (μM): 27 | (A) AcRVRHAcmk: IC50 (μM): 8
Figure 2 A Screen of Electrophilic Warheads for the Inhibition of Rhomboid Proteases The optimized parent sequence Ac-RVRHA was linked to electrophilic warheads commonly used for targeting serine proteases (reviewed in [Hedstrom, 2002], [Walker and Lynas, 2001]). The apparent IC50 values of the compounds were measured in 0.05% DDM using 10 μM substrate KSp35 ([Ticha et al., 2017]) with 1 hr preincubation. Given are the mean values of 2–3 measurements. […]

VcROM = assay: activity-based probe competition assay, rhomboid panel; assay type: biochemical, Vibrio cholerae; conditions: 50 μM and 0.5 μM; outcompeted the ABP even at 500 nM
From the text: (§1) Any enzyme inhibitors to be used as specific tools for cell biology or as starting points for drug development must show sufficient level of selectivity toward their intended target. This is particularly important for compounds that react with the catalytic nucleophile common to many serine hydrolases. […] To map the selectivity of peptidyl ketoamides more objectively and widely, we employed activity-based probe (ABP) competition assays that enable a more general and substrate-independent measurement of inhibitory potency, because they rely solely on the competition between a fluorescently labeled activity-based probe and the tested inhibitor ([Nguyen et al., 2015], [Serim et al., 2012]). […]
(§2) Figure 5 Selectivity of Peptidyl Ketoamides (A) Selectivity of compounds 9, 10, and 11 for nine rhomboid proteases was profiled using activity-based probe competition assay at 50 μM and 0.5 μM concentration. […] (B) Selectivity of compounds 9, 10, and 11 against human serine hydrolases was analyzed using EnPlex as described ([Bachovchin et al., 2014]).
(§3) For inhibitor selectivity profiling against rhomboid proteases ([Wolf et al., 2015]), 400 ng of a purified protein preparation of E. coli GlpG was diluted in 30 μL of reaction buffer (20 mM HEPES, pH 7.4, with 0.05% (w/v) DDM). […] Gels were scanned on a Typhoon Trio+ and analyzed using ImageJ. […]

AaROM = assay: as above; assay type: biochemical, Aquifex aeolicus; conditions: 50 μM and 0.5 μM
From the text: as §1, §2, §3

[2] = target: dipeptidylpeptidase 7 (DPP7) (Homo sapiens, UniProt Q9UHL4); assay: EnPlex multiplex ABP competition profiling; assay type: biochemical; conditions: off-target hit; concentration range where they inhibit rhomboid proteases
Description: Figure 5 Selectivity of Peptidyl Ketoamides (A) Selectivity of compounds 9, 10, and 11 for nine rhomboid proteases was profiled using activity-based probe competition assay at 50 μM and 0.5 μM concentration. The upper limit of enzyme concentration was 0.4 μM. (B) Selectivity of compounds 9, 10, and 11 against human serine hydrolases was analyzed using EnPlex as described ([Bachovchin et al., 2014]).
We next examined peptidyl ketoamides for their possible off-target effects on other serine proteases. To get a representative picture of the selectivity of peptidyl ketoamides, we employed a recently developed EnPlex technology, which allows multiplex analysis of ABP competition with about 100 human serine hydrolases, mostly proteases ([Bachovchin et al., 2014]).
For inhibitor selectivity profiling against rhomboid proteases ([Wolf et al., 2015]), 400 ng of a purified protein preparation of E. coli GlpG was diluted in 30 μL of reaction buffer (20 mM HEPES, pH 7.4, with 0.05% (w/v) DDM). For other rhomboids, amounts were taken that gave similar labeling intensity during profiling. Rhomboids were incubated for 30 min at room temperature with the indicated concentration of compound, 100 μM DCI as positive control, or an equal volume of DMSO as negative control. Next, TAMRA-FP serine hydrolase probe (Thermo Fisher #88318) was added to a final concentration of 1 ìM and incubated for 2 h at 37°C in the dark. The reaction was stopped by addition of 4× Laemmli buffer and the reaction mixture was resolved on 15% SDS-PAGE. Gels were scanned on a Typhoon Trio+ and analyzed using ImageJ. The intensity of each rhomboid protease band calculated by ImageJ was normalized against its corresponding DMSO-treated counterpart (100% activity) to indicate the residual activity left after inhibition. The remaining activity was used to calculate the percentage of inhibition depicted in the heatmap. Selectivity profiles against human serine hydrolases were determined by EnPlex as described previously ([Bachovchin et al., 2014]).

SMILES | IC50 ([1]; 1 hr preincubation, 10 μM fluorogenic substrate KSp35, 0.05% (w/v) DDM) | competition with ABP labeling of VcROM (VcROM) | competition with ABP labeling of AaROM (AaROM) | inhibition of DPP7 (EnPlex) [2] | fold lower IC50 than the parent compound 1 ([1]; ratio of apparent IC50 values)
CC(=O)N[C@@H](CCCNC(=N)N)C(=O)N[C@H](C(=O)N[C@@H](CCCNC(=N)N)C(=O)N[C@@H](Cc1c[nH]cn1)C(=O)N[C@@H](C)C(=O)C(=O)NCCc1ccccc1)C(C)C [compound 9, Ac-RVRHA-CONH-phenylethyl] (Ac-RVRH[X1]-NHPhenethyl) | 440 nM | potently competed | none of these compounds were able to compete | the sequence related dipeptidylpeptidase 7 (DPP7) | –
CC(=O)N[C@@H](CCCNC(=N)N)C(=O)N[C@H](C(=O)N[C@@H](CCCNC(=N)N)C(=O)N[C@@H](Cc1c[nH]cn1)C(=O)N[C@@H](C)C(=O)C(=O)NCCCCc1ccccc1)C(C)C [compound 11, Ac-RVRHA-CONH-phenylbutyl] (Ac-RVRH[X1]-{NH(4-phenylbutyl)}) | – | potently competed | none of these compounds were able to compete | the sequence related dipeptidylpeptidase 7 (DPP7) | about 1,000 fold
